Measurements: US20090282496A1, “Androgen Receptor Related Methods for Treating Bladder Cancer” (University of Rochester Medical Center, priority 2008, published 2009)
Marks after values point to notes of the source that are not given here.

What was measured:
[1] = tested on: BBN-induced bladder cancer; conditions: rats; castration had a much stronger effect; cited from earlier work
[2] = tested on: UMUC3 cells; experiment: Cell proliferation assay (MTT), UMUC3; type: cell-based, human; conditions: 6 days; for effect on growth: UMUC3 subline that expresses AR-siRNA
[3] = biological target: T1, AR (Homo sapiens, UniProt P10275); conditions: TCC-SUP and UMUC3 cells, MMTV-Luc, 24 h
T1 sequence (P10275 1-920): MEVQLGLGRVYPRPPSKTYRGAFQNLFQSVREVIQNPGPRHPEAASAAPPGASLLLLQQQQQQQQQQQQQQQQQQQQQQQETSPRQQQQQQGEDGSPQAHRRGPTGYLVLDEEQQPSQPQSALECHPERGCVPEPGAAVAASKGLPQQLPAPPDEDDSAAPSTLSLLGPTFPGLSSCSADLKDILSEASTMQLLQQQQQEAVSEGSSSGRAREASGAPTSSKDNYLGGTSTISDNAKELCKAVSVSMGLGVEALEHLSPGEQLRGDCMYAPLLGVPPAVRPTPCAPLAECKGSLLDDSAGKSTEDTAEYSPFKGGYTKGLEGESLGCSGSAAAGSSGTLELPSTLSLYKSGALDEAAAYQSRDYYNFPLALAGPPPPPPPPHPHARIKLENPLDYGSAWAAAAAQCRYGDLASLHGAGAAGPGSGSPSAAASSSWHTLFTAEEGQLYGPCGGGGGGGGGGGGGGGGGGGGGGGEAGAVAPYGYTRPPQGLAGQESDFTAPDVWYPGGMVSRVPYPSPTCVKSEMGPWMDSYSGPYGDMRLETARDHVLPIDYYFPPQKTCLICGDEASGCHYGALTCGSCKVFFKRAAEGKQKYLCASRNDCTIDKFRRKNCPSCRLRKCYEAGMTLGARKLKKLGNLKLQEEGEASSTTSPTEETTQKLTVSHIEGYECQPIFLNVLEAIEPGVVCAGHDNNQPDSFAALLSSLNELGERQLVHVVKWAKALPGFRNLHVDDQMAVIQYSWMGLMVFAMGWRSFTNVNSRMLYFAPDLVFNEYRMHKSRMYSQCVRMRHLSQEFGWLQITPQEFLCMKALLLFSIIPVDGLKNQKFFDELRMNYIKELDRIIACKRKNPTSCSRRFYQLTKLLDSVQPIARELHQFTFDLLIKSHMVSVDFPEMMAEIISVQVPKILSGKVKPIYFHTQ
Protocol: Cell transfections and luciferase assays were performed as previously described (Miyamoto et al., Int. J. Cancer, 117:866-72 (2005) and Miyamoto et al., Proc. Natl. Acad. Sci. USA, 100:4440-4 (2003)). Briefly, bladder cancer cells at a density of 50-60% confluence in 12-well tissue culture plates were transfected with 1.5 μg of plasmid DNA using SuperFect transfection reagent (Qiagen) according to the manufacturer's instructions. […] Cells were harvested, lysed, and assayed for luciferase activity. A Dual-Luciferase Reporter Assay kit (Promega) and luminometer (TD-20/20, Turner BioSystems) were used to determine the level of luciferase activity in the cell extracts.

[4] = tested on: TCC-SUP cells; experiment: Cell proliferation assay (MTT), TCC-SUP; type: cell-based, human; conditions: 6 days; for effect on growth: TCC-SUP subline that expresses AR-siRNA
[5] = tested on: AR-negative bladder cancer cell lines (5637); experiment: Cell proliferation assay (MTT), AR-negative bladder cancer cell lines; type: cell-based, human; conditions: AR-negative 5637 subline that expresses AR-siRNA, 6 days
[6] = tested on: BBN-induced bladder tumors; experiment: BBN-induced mouse bladder cancer model (tumor incidence; PCNA and TUNEL indexes of tumors); conditions: for Carcinoma, No. (%) / Preneoplastic lesions, No. (%): 0.05% BBN
Protocol: (§2) Animal care was provided in accordance with institutional guidelines. Five to six weeks old ARKO mice (male: n=48; female: n=24) and their wild-type littermates (male: n=48; female: n=24) were supplied ad libitum with tap water containing 0.05% BBN (TCI America) in opaque bottles for 12 weeks, and thereafter with tap water without BBN. To estimate BBN intake, the drinking water was prepared fresh twice a week, and consumption was recorded. […] Before starting BBN treatment, wild-type male mice received surgical castration (n=24) or sham surgery (n=24) at 5 weeks of age. […] Every 90 days, these pellets were replaced. At 20 (n=4 in each group), 30 (n=8 in each group), or 40 (n=12 in each group) weeks of age, the mice were killed by administration of pentobarbital followed by rapid cervical dislocation. Urinary tract specimens were harvested. These specimens were preserved in phosphate-buffered 10% formalin, embedded in paraffin, sectioned, stained with hematoxylin and eosin, and examined microscopically to identify carcinoma or other pathological changes. Paraffin-embedded sections were also used for immunohistochemical analysis. Part of each specimen was rapidly frozen in liquid nitrogen and stored at −80° C. for subsequent RNA analysis.
(§3) Sections (5-7 μm thick) from paraffin-embedded mouse urinary tract tissue and xenograft tumors (see below) were deparaffinized in xylene and rehydrated in a graded ethanol series. Sections were then incubated in 3% hydrogen peroxide to block endogenous peroxidase, with a protein blocking solution containing preimmune rabbit serum, and finally with a 1:500 dilution of primary antibody (rabbit polyclonal anti-proliferating cell nuclear antigen (PCNA) (Santa Cruz). Samples were incubated with peroxidase-conjugated anti-rabbit IgG. The slides were rinsed with PBS, incubated with diaminobenzidine, and finally counterstained with hematoxylin. The TUNEL assay was performed on additional rehydrated sections from paraffin-embedded mouse urinary tract tissue and xenograft tumor using the Fluorescein-FragEL DNA Fragmentation Detection kit (Calbiochem), according to the manufacturer's instructions, followed by counterstaining for DNA with DAPI. The percentage of apoptotic cells was determined by fluorescence microscopy. The percentage of PCNA- and TUNEL-positive cells in 1000 cells counted on each specimen were used to determine the amount of cell proliferation and apoptotic indices, respectively.

[7] = tested on: TCC-SUP xenograft tumors; experiment: TCC-SUP mouse xenograft, tumor progression study; type: in vivo, male athymic nude mouse
From the text: Total RNA from mouse bladder and xenograft tumor tissues and cultured cells was extracted by the acid guanidinium-phenol-chloroform method as previously described (Miyamoto et al., Cancer, 75:2565-70 (1995)) or by using Trizol reagent (Life Science). Isolated RNAs were reverse transcribed to cDNA using random hexamers as described (Miyamoto et al., Cancer, 75:2565-70 (1995) and Miyoshi et al., Prostate, 56:280-6 (2003)), and amplified by PCR using a primer set specific for the AR gene (Miyoshi et al., Prostate, 56:280-6 (2003)). Using the iCycler (Bio-Rad) and the methods previously described by Miyoshi et al., Prostate, 56:280-6 (2003), real-time quantitative PCR analysis of AR, basic fibroblast growth factor (bFGF), vascular endothelial growth factor (VEGF), and matrix metalloproteinase-9 (MMP-9) was performed on the tissue samples from mouse xenograft tumors. The following PCR primers were designed using Beacon Designer 2 (Premier Biosoft): bFGF: 5′-[…]-3′ (SEQ ID NO. 1) and 5′-[…]-3′ (SEQ ID NO. 2), VEGF: 5′-[…]-3′ (SEQ ID NO. 3) and 5′-[…]-3′ (SEQ ID NO. 4), and MMP-9: 5′-[…]-3′ (SEQ ID NO. 5) and 5′-[…]-3′ (SEQ ID NO. 6). β-actin was used as an internal control.
(§1) Bladder cancer cell lines (TCC-SUP, UMUC3, and 5637) were harvested, washed twice with PBS, and resuspended in Matrigel (BD Bioscience) at a final concentration of 1×10^7 cells/mL. Cells (1×10^6 cells in 100 μl per site) were then injected subcutaneously into the right and left flanks of 6-week-old male athymic nude mouse. Treatment (castration or sham surgery, flutamide [0.5 mg/mouse] or placebo pellet injection, and the recently developed anti-AR molecule ASC-J9 (50 mg/Kg or DMSO injection) (Ohtsu et al., J. Med. Chem., 45:5037-42 (2002)) was initiated either (1) at the same time as tumor cell injection (for tumor incidence studies, n=8 mice in each group) or (2) when the sizes of all tumors reached 40 mm^3 (for tumor progression studies, n=12 tumors from 6 mice in each group). Hormonal pellets were replaced as required (every 90 days). Tumor weight was calculated by the following formula: tumor weight (mg)=tumor length (mm)×[tumor width (mm)]^2×0.5 (Geram et al., Cancer Chemother. Rep., 3:47-52 (1972)). Using calipers, each tumor was measured twice a week until either the tumor size reached 40 mm^3 (for tumor incidence study) (Chen et al., Nat. Med., 10:33-9 (2004)), or until the tumor exceeded 10% of the animal's body weight, at which time the mouse was killed (for tumor progression study).

[8] = tested on: TCC-SUP and UMUC3 stable sublines (control-siRNA, AR-siRNA); experiment: Tumor incidence (tumorigenicity) study of control-siRNA and AR-siRNA sublines in nude mice; type: in vivo, male athymic nude mouse
From the text: The reporter plasmids [mouse mammary tumor virus (MMTV)-luciferase (Luc) and (ARE)4-Luc (provided by Dr. Michael L. Lu at Harvard Medical School)] as well as a retrovirus vector pMSCV/U6 (Clontech)-AR-siRNA were described in previous studies (Miyamoto et al., Int. J. Cancer, 117:866-72 (2005) and Yeh et al., J. Exp. Med. 198:1899-908 (2003)). Using SuperFect reagent (Qiagen), stable cell lines expressing the AR-siRNA were established by transfecting pMSCV/U6-AR-siRNA into Phi-NX packaging retrovirus producer cells (developed by the Nolan Lab at Stanford University). The target cells (i.e., TCC-SUP, UMUC3, and 5637) were then cultured in the presence of the viral supernatant, and infected cells were selected with puromycin (Sigma).
as §1

[9] = tested on: AR-negative 5637 xenograft tumors; experiment: 5637 mouse xenograft, tumor progression study; type: in vivo, male athymic nude mouse; conditions: androgen deprivation therapy (castration and/or flutamide) at 12 weeks
Protocol: Bladder cancer cell lines (TCC-SUP, UMUC3, and 5637) were harvested, washed twice with PBS, and resuspended in Matrigel (BD Bioscience) at a final concentration of 1×10^7 cells/mL. Cells (1×10^6 cells in 100 μl per site) were then injected subcutaneously into the right and left flanks of 6-week-old male athymic nude mouse. […] Med. […] Hormonal pellets were replaced as required (every 90 days). Tumor weight was calculated by the following formula: tumor weight (mg)=tumor length (mm)×[tumor width (mm)]^2×0.5 (Geram et al., Cancer Chemother. Rep., 3:47-52 (1972)).

[10] = tested on: BBN-induced bladder tumors; conditions: wild-type mice, drinking water with BBN at 0.01-0.05% for 10-20 weeks; previous studies; cited from earlier work
[11] = tested on: BBN-induced bladder tumors; conditions: mouse, in vivo
Protocol: as §2, §3

[12] = ARKO male mice + DHT pellet 1.5 mg/mouse/90 days, age 20 weeks
[13] = ARKO male mice + DHT pellet, age 30 weeks
[14] = ARKO male mice + DHT pellet, age 40 weeks
[15] = male ARKO mice treated with BBN and DHT, 40 weeks
[16] = harvested TCC-SUP tumors, ASC-J9 50 mg/Kg
[17] = harvested TCC-SUP tumors, real-time RT-PCR

Structure (SMILES): CC(C)(C)NC(=O)[C@H]1CC[C@H]2[C@@H]3CC[C@H]4NC(=O)C=C[C@]4(C)[C@H]3CC[C@]12C [finasteride, Finasteride]
- development of BBN-induced bladder cancer [1]: only slightly suppressed

Structure (SMILES): CC(C)(O)C(=O)Nc1ccc([N+](=O)[O-])c(C(F)(F)F)c1 [HF, hydroxyflutamide]
- reduction of the DHT effect on cell growth ([2]; UMUC3, 5 μM HF + 1 nM DHT, range given for both lines): 67-75%
- effect on growth [2]: did not affect the growth
- effect on cell proliferation ([2]; control (scrambled siRNA) UMUC3 subline, 1 nM DHT and/or 5 μM HF): antagonized the DHT effect
- effect on DHT-induction of luciferase ([3]; 5 μM HF + 1 nM DHT): clearly inhibited
- agonist activity alone (luciferase) ([3]; 5 μM HF alone): only marginal agonist activity
- effect on growth [4]: did not affect the growth
- reduction of the DHT effect on cell growth ([4]; TCC-SUP, 5 μM HF + 1 nM DHT, range given for both lines): 67-75%
- effect on cell proliferation ([4]; control (scrambled siRNA) TCC-SUP subline, 1 nM DHT and/or 5 μM HF): antagonized the DHT effect
- effect on growth [5]: did not affect the growth

Structure (SMILES): C[C@]12CCC(=O)C[C@@H]1CC[C@@H]1[C@@H]2CC[C@]2(C)[C@@H](O)CC[C@@H]12 [DHT, dihydrotestosterone]
- Carcinoma, No. (%) [6, 12]: 0 (0) No. (%)
- Preneoplastic lesions, No. (%) [6, 12]: 0 (0) No. (%)
- Carcinoma, No. (%) [6, 13]: 1 (0)∵ No. (%)
- Preneoplastic lesions, No. (%) [6, 13]: 3 (38) No. (%)
- Carcinoma, No. (%) [6, 14]: 3 (25)‡‡ No. (%)
- Preneoplastic lesions, No. (%) [6, 14]: 5 (42) No. (%)
- carcinoma incidence [6, 15]: 25%
- preneoplastic lesions incidence [6, 15]: 42%
- increase of cell growth ([2]; UMUC3, 1 nM DHT, vs. ETOH): 45%
- effect on growth [2]: did not affect the growth
- effect on growth [4]: did not affect the growth
- increase of cell growth ([4]; TCC-SUP, 1 nM DHT, vs. ETOH): 55%
- effect on growth [5]: did not affect the growth

Structure (SMILES): COc1ccc(C=CC(=O)C=C(O)C=Cc2ccc(OC)c(OC)c2)cc1OC [ASC-J9, 5-hydroxy-1,7-bis(3,4-dimethoxyphenyl)-1,4,6-heptatrien-3-one]
- reduction in tumor size ([7]; ASC-J9 50 mg/Kg intraperitoneal every other day, over 16 weeks of treatment): 58%
- apoptotic index of harvested tumors [7, 16]: increased
- proliferation index of harvested tumors [7, 16]: decreased
- levels of angiogenic factors and metastasis-related factors (bFGF, VEGF, MMP-9) in tumors [7, 17]: reduced
- reduction of AR expression in tumors ([7]; harvested TCC-SUP tumors, real-time RT-PCR, ASC-J9 50 mg/Kg): 39%
- effect on DHT-simulated growth ([2]; UMUC3, 1 μM ASC-J9 + 1 nM DHT): inhibited
- latency of tumor formation ([8]; vs. control-siRNA cells with control treatment, treatment from tumor cell implantation, tumor positive at 40 mm3): substantially prolonged
- effect on DHT-simulated growth ([4]; TCC-SUP, 1 μM ASC-J9 + 1 nM DHT): inhibited

Structure (SMILES): CC(C)C(=O)Nc1ccc([N+](=O)[O-])c(C(F)(F)F)c1 [flutamide, Flutamide]
- tumor size vs. control mice ([7]; castration and/or antiandrogen (flutamide pellet), at 16 weeks): statistically significantly smaller
- levels of angiogenic factors and metastasis-related factors (bFGF, VEGF, MMP-9) in tumors [7, 17]: reduced
- reduction in tumor size [9]: up to 12%
- tumorigenicity of AR-expressing (control-siRNA-transfected) bladder cancer ([8]; androgen deprivation (castration or flutamide pellet)): suppressed tumorigenicity
- development of AR-siRNA-expressing tumors ([8]; castration and flutamide treatment): little effect

Structure (SMILES): CCCCN(CCCCO)N=O [BBN, N-butyl-N-(4-hydroxybutyl)nitrosamine]
- frequency of bladder carcinomas by 40 weeks [10]: 30-100%
- hyperplasia in the bladder, incidence [11]: 17%
- invasive carcinoma incidence [11]: 50%
- preneoplastic bladder lesions incidence [11]: 50-67%
- preneoplastic lesions (hyperplasias or papillomas) incidence [11]: 75%
